Experimental data taken from PMC2808337, “Lactococcus lactis, an Alternative System for Functional Expression of Peripheral and Intrinsic Arabidopsis Membrane Proteins” (PLoS ONE, 2010).

How the values were obtained:
[1] = target: T1, ceQORH (Arabidopsis thaliana, UniProt Q9SV68); test: spectrophotometric NBT reduction to formazan, […] nm; type: biochemical; settings: 100 µM NBT, 100 µM NADPH, soybean lipids, 10 mM Tris-HCl pH 8.0, artificial electron acceptor
T1 construct: mostly monomer, expected mass 34 kDa
T1 sequence (Q9SV68 1-329): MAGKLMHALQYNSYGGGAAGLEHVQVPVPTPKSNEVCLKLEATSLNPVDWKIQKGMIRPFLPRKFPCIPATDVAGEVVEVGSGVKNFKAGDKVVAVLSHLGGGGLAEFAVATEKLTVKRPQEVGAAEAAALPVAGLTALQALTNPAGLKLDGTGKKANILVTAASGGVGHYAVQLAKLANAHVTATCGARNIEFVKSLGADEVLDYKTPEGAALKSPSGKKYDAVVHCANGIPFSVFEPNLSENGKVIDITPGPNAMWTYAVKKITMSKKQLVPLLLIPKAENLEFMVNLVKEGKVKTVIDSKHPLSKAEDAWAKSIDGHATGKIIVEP

[2] = target: T2, AtAATP1 (Arabidopsis thaliana, UniProt Q39002); test: radioactive ATP uptake into intact L. lactis cells, filtration; type: cell-based; settings: 50 µM [α-32P]ATP, 50 mM potassium phosphate pH 7.0, 25 °C; empty-vector control; labelled compound
T2 construct: gene AATP1; N-terminal attB-encoded extension, C-terminal Strep-tag II; in intact Lactococcus lactis NZ9000 cells
T2 sequence (Q39002 81-624): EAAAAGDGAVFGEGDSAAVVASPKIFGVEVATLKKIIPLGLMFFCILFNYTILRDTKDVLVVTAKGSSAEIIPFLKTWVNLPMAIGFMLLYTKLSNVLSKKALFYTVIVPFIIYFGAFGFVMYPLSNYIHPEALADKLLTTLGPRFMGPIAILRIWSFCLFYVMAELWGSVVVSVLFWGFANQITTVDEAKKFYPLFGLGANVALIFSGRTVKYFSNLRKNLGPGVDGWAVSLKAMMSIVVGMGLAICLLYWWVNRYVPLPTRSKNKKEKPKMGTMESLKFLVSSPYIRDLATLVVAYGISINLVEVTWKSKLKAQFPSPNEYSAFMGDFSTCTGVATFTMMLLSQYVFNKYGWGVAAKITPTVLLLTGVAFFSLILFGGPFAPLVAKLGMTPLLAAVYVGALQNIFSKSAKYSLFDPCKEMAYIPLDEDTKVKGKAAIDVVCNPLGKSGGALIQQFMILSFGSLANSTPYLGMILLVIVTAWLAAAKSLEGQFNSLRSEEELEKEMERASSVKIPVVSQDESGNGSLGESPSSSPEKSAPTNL

COc1cc(-c2ccc(-[n+]3nc(-c4ccccc4)nn3-c3ccc([N+](=O)[O-])cc3)c(OC)c2)ccc1-[n+]1nc(-c2ccccc2)nn1-c1ccc([N+](=O)[O-])cc1 [NBT]
spectrophotometric NBT reduction to formazan, 550 nm [1]: the ceQORH protein, in combination with lipids and NADPH reduces the NBT to formazan

NC(=O)C1=CN([C@@H]2O[C@H](COP(=O)(O)OP(=O)(O)OC[C@H]3O[C@@H](n4cnc5c(N)ncnc54)[C@H](OP(=O)(O)O)[C@@H]3O)[C@@H](O)[C@H]2O)C=CC1 [NADPH]
spectrophotometric NBT reduction to formazan, 550 nm ([1]; electron donor): ceQORH protein indeed has NADPH-dependent dehydrogenase activity

Nc1ncnc2c1ncn2[C@@H]1O[C@H](COP(=O)(O)OP(=O)(O)OP(=O)(O)O)[C@@H](O)[C@H]1O [[α-32P] ATP]
radioactive ATP uptake into intact L. lactis cells, filtration [2]: recombinant AtAATP1 protein produced in L. lactis is able to transport ATP
